The record followed here is US10591461B2, “Method of drug design and optimisation utilizing stereochemical mimicry” (The Trustees of the University of Pennsylvania, priority 2016, dated 2020).

Ends that are not written are not given here.

One experiment has as its system neuro-2a cells. As to the kind of experiment: Confocal microscopy imaging of neuronal cells (neurite outgrowth, qualitative). The settings on record: for number of projections (increase from no treatment): confocal images, FIG. 7. The class given is cell-based, Mouse. As for the experimental part:
(§1) Once the three compounds were synthesized the neurite outgrowth assay was used in order to determine the effectiveness of the aza-proline derivatives in comparison with the Glyx-13. Mouse neuroblastoma cells (Neuro-2a cells) were used in order to measure the increase in neurite growth between untreated cells and those treated with the test compounds. A plate reader assay was used where 9,000 cells/cm^2 were treated with the compounds at 0.01, 0.10, and 1.00 μM concentrations for 48 hours. Several controls were used as well, including wells with no cell and compound, cells with no compound (just water), and wells with no cells and water. After treatment with the compounds, the cells were washed in DPBS buffer and treated with cell viability indicator and a membrane stain for 20 minutes before being washed again and treated with a background suppression dye. The plate reader assay was inconclusive for some of the concentrations of the compounds, but the 0.10 μM data is promising. (FIG. 6)

Experiment [1] has as its system Mouse neuroblastoma cells (Neuro-2a cells). The experiment is classed as cell-based. The settings on record: 0.10 μM, 48 hours, vs untreated cells; FIG. 6; preliminary data. As for the experimental part:
as §1

`C[C@@H](O)[C@H](N)C(=O)N1CCCN1C(=O)N1CCC[C@H]1C(=O)N[C@H](C(N)=O)[C@@H](C)O` [Glyx-1]: the “number of projections (increase from no treatment)” value with neuro-2a cells is given as “even more noticeable”.
As to `C[C@@H](O)[C@H](N)C(=O)N1CCC[C@H]1C(=O)N1CCCN1C(=O)N[C@H](C(N)=O)[C@@H](C)O` [Glyx-2], the “size of the neurites (membrane stain)” value in experiment [1] is on record as “significant increase”. In the experiment with neuro-2a cells, the “number of projections (increase from no treatment)” value is recorded as “even more noticeable”. For the same molecule, the “effectiveness compared with control compound Glyx-13 (neuronal projections and dendrite length)” value in the experiment with neuro-2a cells (confocal microscope data) is recorded as “significantly more effective”.
Turning to “Thr-Pro-Pro-Thr-NH2 (TPPT-NH2) [Glyx-13, tetrapeptide, parent and control compound, NMDA receptor glycine-site partial agonist, reference compound]”, the “number of projections (increase from no treatment)” value with neuro-2a cells is recorded as “significant increase”.
